Laboratory results taken from patent US9675598B2, “Compositions of tolperisone” (SANOCHEMIA PHARMAZEUTIKA AG, priority 2007, dated 2017).

Legend:
[1] = 4-MMPPO content after standard single recrystallization of tolperisone (Example 2); type: physicochemical
Description: All samples used in the analytical sequence were prepared for analysis as follows. Sample were homogenized if necessary (e.g., tablets) and weighed. For each tolperisone sample, approximately 20 mg of sample was added into a 20 mL flask. 20 mL of 50 mM HCl in MeOH was added to the flask, which was then placed in an ultrasonic bath for about 5 minutes. The contents of the flask were mixed on a vortexer for about 20 seconds. In instances in which the tolperisone sample had initially been in tablet form, the solution was then centrifuged at 4000 rpm for 2 minutes. 200 μL of the sample was then transferred into a small conical centrifuge vial. 20 μL of an internal standard solution containing deuterated 4-MMPPO, 200 μL of buffer at pH 1, and 0.4 mL of diisopropyl ether (DIPE) were added to the vial. The sample was then extracted by vortexing with a DVX-2500 multi-tube vortexer (2100 rpm) for about 2 minutes (cycle: 5 seconds run, 1 second pause time) and centrifugation (phase separation) at 4000 rpm for 2 minutes. 150 μL of 50 mM HCl in MeOH/DMSO (½) was added into empty designated conical autosampler vials. After centrifugation, 100 μL of supernatant was transferred into these conical autosampler vials. The vials were crimped and vortexed with a DVX-2500 multi-tube vortexer (2100 rpm) for about 1 minute. […]

[2] = 4-MMPPO content after recrystallization using acidified solvent system (Example 5); type: physicochemical; conditions: 1% (v/v) concentrated aqueous HCl added to the recrystallization mixture
Description: Crude tolperisone was dissolved in an 85:15 (v/v) mixture of 2-butanone (MEK) and isopropanol, accompanied by addition of 1% HCl under reflux for 12 hours. The temperature was decreased to 80° C. and the solution filtered while hot. The solution was cooled to 5° C. and stirred for 7 h at 5° C.
The crystalline precipitate was separated by filtering, washed with isopropanol, and subsequently dried in vacuo at 45 to 85° C., with lower drying temperatures being preferred.
When 1% (v/v) concentrated aqueous HCl was added to the recrystallization mixture, 4-MMPPO levels dropped below 6.6 ppm in the final recrystallized tolperisone product.

4-MMPPO content of recrystallized product ([1]; ppm as printed): 1400 ppm | 4-MMPPO content, subsequent production batches ([1]; subsequent production batches): < 0.05% | 4-MMPPO levels in the final recrystallized tolperisone product [2]: below 6.6 ppm
Compound: Cc1ccc(C(=O)C(C)CN2CCCCC2)cc1 (stereo not drawn) [tolperisone, 2-methyl-1-(4-methylphenyl)-3-(piperidinyl)-1-propanone]
